Holding throughout (assay): NCI anticancer screen, dose series, 48 h
Assay [1] concerns RXF 393.
Assay [2] relates to SF-295.
Assay [3] concerns SR.
For assay [4], the system named is SF-539.
Assay [5] deals with A549.
Assay [6] has as its system HT-29.
Assay [7] relates to OVCAR-3.
The test system of assay [8] is SN12C.
In assay [9] the test system is SW-620.
For assay [10], the system named is M14.
Assay [11] relates to TK-10.
Assay [12] relates to KM12.
For assay [13], the system named is OVCAR-8.
The subject of assay [14] is SNB-75.
In assay [15] the test system is NCI-H23.
For assay [16], the system named is NCI-H226.
The subject of assay [17] is UO-31.
In assay [18] the test system is HOP-92.
Assay [19] has as its system HL-60.

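Cultured in 96-well plates, cells were exposed to test compound for 48 hours across five concentrations. GI50 = concentration required for 50% inhibition of growth.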 Active and inactive are the calls of the source. Cut-off read from the data, not from the text of the source: active = GI50 up to about 1.1 µM and inactive = higher.

Regarding `CN1C(=O)N(C)C2(O)c3ccccc3C(=O)C12O` (configuration not stated), the GI50 in assay [1], in assay [2], in assay [3], in assay [4], in assay [5] and in [6] was > 100 µM (inactive) throughout. Moreover, the GI50 in assay [7], in assay [8], in assay [9], in [10], in assay [11] and in [12] was > 100 µM (inactive) each time. Besides, the GI50 in assay [13], in assay [14], in [15], in assay [16] and in [17] was > 100 µM (inactive) each time.
`Cc1c(C#N)c(N)n(C2OC(CO)C(O)C(O)C2O)c(=S)c1C#N` (configuration not stated): the GI50 in [1], in assay [2], in assay [18], in assay [3], in assay [4] and in [19] was > 100 µM (inactive) in each case. Besides, the GI50 in [5], in assay [6], in [7], in assay [8], in [9] and in assay [10] was > 100 µM (inactive) in each case. Moreover, the GI50 in [11], in assay [12], in [13], in assay [14], in assay [15] and in assay [16] was > 100 µM (inactive) in each case. The GI50 in assay [17] was > 100 µM (inactive).
In the case of `CN1CC[C@@]2(c3cccc(O)c3)CC(=O)/C(=C/c3ccc(Cl)c(Cl)c3)[C@H]1C2`, the GI50 in assay [1] was 2.66 µM (inactive); in [2] it was 2.03 µM (inactive); in [18] it was 4.49 µM (inactive); in assay [3], 1.14 µM (inactive); in [19], 1.52 µM (inactive); in [5], 3.28 µM (inactive). For the same compound, the GI50 in assay [6] was 1.42 µM (inactive); in assay [7], 2.23 µM (inactive); in [8], 2.04 µM (inactive); in assay [9], 1.68 µM (inactive); in assay [10] it was 2.25 µM (inactive); in assay [11], 14 µM (inactive). The GI50 was 3.05 µM (inactive) in assay [13], 1.06 µM (active) in assay [14], 3.4 µM (inactive) in assay [15] and 2.07 µM (inactive) in assay [17].
For the compound `CCOC(=O)c1sc2c(sc(=O)n2-c2ccccc2)c1O`, the GI50 is > 100 µM (inactive) in assay [1]; > 100 µM (inactive) in assay [2]; > 100 µM (inactive) in [18]; 67.6 µM (inactive) in assay [3]; > 100 µM (inactive) in assay [4]; > 100 µM (inactive) in assay [19]. Further, the GI50 in assay [5] was > 100 µM (inactive); in assay [6], > 100 µM (inactive); in [7], 88.7 µM (inactive); in assay [8] it was > 100 µM (inactive); in [10], > 100 µM (inactive); in assay [11], > 100 µM (inactive). The GI50 was > 100 µM (inactive) in assay [12]; > 100 µM (inactive) in assay [13]; > 100 µM (inactive) in assay [14]; 65.8 µM (inactive) in assay [15]; > 100 µM (inactive) in [16]; > 100 µM (inactive) in [17].
For `COC1(OC)CCCc2c1no[n+]2[O-]`, the GI50 in assay [1], in assay [2], in [3], in assay [4], in [19] and in [5] was > 100 µM (inactive) throughout. Further, the GI50 in assay [6], in [7], in assay [8], in [9], in assay [10] and in assay [11] was > 100 µM (inactive) each time. Besides, the GI50 in assay [12] was > 100 µM (inactive); in assay [13], > 100 µM (inactive); in assay [14] it was 79.4 µM (inactive); in assay [15], > 100 µM (inactive); in [16], > 100 µM (inactive); in assay [17], > 100 µM (inactive).
Consider `N#CCCn1c(S)nnc1CCC(=O)Nc1ccc(Cl)cc1Cl`, for which the GI50 in assay [1] was > 100 µM (inactive); in assay [2] it was > 100 µM (inactive); in assay [18] it was > 100 µM (inactive); in assay [3], 21.7 µM (inactive); in assay [4], > 100 µM (inactive); in assay [19], 94.2 µM (inactive). In addition, the GI50 in assay [5] was 81.3 µM (inactive); in assay [6], > 100 µM (inactive); in assay [7], > 100 µM (inactive); in assay [8] it was > 100 µM (inactive); in [9] it was > 100 µM (inactive); in assay [10] it was > 100 µM (inactive). Also, the GI50 in [11], in [12], in assay [13], in [14], in [15] and in assay [16] was > 100 µM (inactive) throughout. Further, in assay [17], the GI50 is > 100 µM (inactive).
As for `O=c1oc(=O)c2oc3ccccc3oc1=2`, the GI50 in [1], in assay [2], in assay [18], in assay [3], in assay [4] and in assay [19] was > 100 µM (inactive) throughout. Moreover, the GI50 in [5], in assay [6], in assay [7], in [8], in [9] and in assay [10] was > 100 µM (inactive) throughout. The GI50 in assay [11], in assay [12], in assay [13], in assay [14], in assay [15] and in assay [16] was > 100 µM (inactive) each time. The GI50 in [17] was > 100 µM (inactive).
Turning to `COC(=O)/C=C/c1cc(O)c2c(c1)[C@H](C(=O)OC)[C@@H](c1ccc(O)c(O)c1)O2`, the GI50 is 0.476 µM (active) in assay [2]; 9.89 µM (inactive) in assay [18]; 0.0316 µM (active) in assay [3]; 0.0311 µM (active) in assay [4]; 0.877 µM (active) in [5]; 3.16 µM (inactive) in assay [6]. Moreover, the GI50 in assay [7] was 0.0339 µM (active); in assay [8], 0.18 µM (active); in assay [9] it was 0.0428 µM (active); in assay [10] it was 0.0386 µM (active); in assay [11] it was 24.7 µM (inactive); in [12], 0.283 µM (active). In addition, the GI50 in assay [13] is 0.169 µM (active); in assay [14] it was 0.0195 µM (active); in assay [15] it was 0.342 µM (active); in [16], 2.48 µM (inactive); in assay [17], 0.189 µM (active).
In the case of `CC(=O)O[C@H]1C(N(C)C(=O)c2ccccc2)CC[C@]2(C)C3CC[C@@]4(C)C(CC(O)[C@@H]4C(C)N(C)C)[C@@H]3CCC12` (some centres not stated), the GI50 is > 100 µM (inactive) in assay [2]; > 100 µM (inactive) in assay [18]; 76.9 µM (inactive) in assay [3]; > 100 µM (inactive) in assay [4]; 89.5 µM (inactive) in [19]; > 100 µM (inactive) in assay [5]. In addition, the GI50 in assay [6], in assay [7], in assay [8], in [9], in assay [10] and in assay [11] was > 100 µM (inactive) in each case. Moreover, the GI50 in [12], in assay [13], in assay [14], in [15] and in [16] was > 100 µM (inactive) each time.
For `O=C(CCN1CCC(CCO)CC1)Nc1ccc2c(c1)C(=O)c1ccc(NC(=O)CCN3CCC(CCO)CC3)cc1C2=O`, the GI50 in assay [1] is 30.1 µM (inactive); in [2], > 100 µM (inactive); in [18] it was 29.8 µM (inactive); in assay [3] it was 7.69 µM (inactive); in assay [4], 6.28 µM (inactive); in assay [19] it was 24.6 µM (inactive). For the same compound, the GI50 in [5] is 37.7 µM (inactive); in [6], 13.5 µM (inactive); in assay [7] it was 5.53 µM (inactive); in assay [8] it was 16.5 µM (inactive); in assay [9], 4.79 µM (inactive); in assay [11], 24.7 µM (inactive). The GI50 in assay [12] is 2.69 µM (inactive); in assay [13] it was 9.89 µM (inactive); in [14] it was 20.2 µM (inactive); in assay [15], 26.5 µM (inactive); in assay [16] it was 4.86 µM (inactive); in [17], 34.4 µM (inactive).
Turning to `OCC(O)C(OC1OC(CO)C(O)C(O)C1O)c1nn(-c2ccccc2)c2nc3cc(Cl)ccc3nc12` (configuration not stated), the GI50 in assay [1], in assay [2], in assay [3], in [4], in assay [6] and in [7] was > 100 µM (inactive) in each case. In addition, the GI50 in [8], in assay [10], in assay [11], in assay [12], in [13] and in assay [14] was > 100 µM (inactive) in each case. Further, the GI50 in assay [15] and in assay [17] was > 100 µM (inactive) throughout.
